Results as given in patent US9359338B2, “Cyclopropanecarboxamido-substitute aromatic compounds as anti-tumor agents” (Crown Bioscience Inc. (Taiwan), priority 2012, dated 2016).
Where two headings read alike, the source gives them in different places. Each block holds one molecule with its values, some of them ahead of it.

Columns and labels:
pERK in MDA-MB-231 cells = test: Inhibitory activity at pERK (In Cell Western, MDA-MB-231 cells); type: cell-based; settings: Homo sapiens
Method in brief: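 pERK was measured by in-cell immunofluorescence (PI nuclear counterstain, Acumen read-out) in fixed MDA-MB-231 cells. Compound exposure lasted 2 h in DMEM with 0.1% BSA, using eight 3-fold dilutions starting at 30 μM final and 0.3% DMSO. IC50 values were derived from the resulting curves.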

PLC-PRF-5 cells = test: Inhibition of proliferation of PLC-PRF-5 cells (ATPlite); type: cell-based; settings: Homo sapiens
Method in brief: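 Antiproliferative IC50 from luminescent ATP detection (ATPlite) after 96 h compound exposure at 37 °C. Cells grown in DMEM plus 10% FBS and allowed 2 h to settle, then dosed with eight 3-fold dilutions topping at 30 μM final, DMSO 0.3%.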

B-Raf kinase = B-Raf kinase (Homo sapiens (Human), UniProt P15056); test: Inhibitory activity at B-Raf kinase (ADP-GLO assay); type: biochemical
Sequence of B-Raf kinase (P15056 416-766): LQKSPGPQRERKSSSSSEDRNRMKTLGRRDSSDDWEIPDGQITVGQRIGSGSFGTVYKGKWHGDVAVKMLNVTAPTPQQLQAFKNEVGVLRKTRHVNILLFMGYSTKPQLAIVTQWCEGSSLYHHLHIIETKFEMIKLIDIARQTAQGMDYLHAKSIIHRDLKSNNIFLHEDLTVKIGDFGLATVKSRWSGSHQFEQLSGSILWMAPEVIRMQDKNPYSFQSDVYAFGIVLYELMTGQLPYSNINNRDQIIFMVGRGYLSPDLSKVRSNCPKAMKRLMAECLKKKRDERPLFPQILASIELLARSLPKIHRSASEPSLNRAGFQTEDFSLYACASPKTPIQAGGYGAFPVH
Method in brief: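 B-Raf (5 nM) was preincubated with compound (0.25% DMSO final) for 20 min at 30 °C in 50 mM Hepes pH 7.5, 10 mM Mg²⁺, 1 mM EGTA, 2 mM DTT. Reaction with 6 μM ATP and 30 nM GST-MEK1 ran 2 hrs at 30 °C. ADP was detected by ADP-GLO luminescence, giving IC50 values.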

KDR kinase (790-1356 AA) = KDR kinase (790-1356 AA) (Homo sapiens (Human), UniProt P35968); test: Inhibitory activity at KDR kinase (Lance Ultra Ulight-TK assay); type: biochemical
Sequence of KDR kinase (790-1356 AA) (P35968 790-1356): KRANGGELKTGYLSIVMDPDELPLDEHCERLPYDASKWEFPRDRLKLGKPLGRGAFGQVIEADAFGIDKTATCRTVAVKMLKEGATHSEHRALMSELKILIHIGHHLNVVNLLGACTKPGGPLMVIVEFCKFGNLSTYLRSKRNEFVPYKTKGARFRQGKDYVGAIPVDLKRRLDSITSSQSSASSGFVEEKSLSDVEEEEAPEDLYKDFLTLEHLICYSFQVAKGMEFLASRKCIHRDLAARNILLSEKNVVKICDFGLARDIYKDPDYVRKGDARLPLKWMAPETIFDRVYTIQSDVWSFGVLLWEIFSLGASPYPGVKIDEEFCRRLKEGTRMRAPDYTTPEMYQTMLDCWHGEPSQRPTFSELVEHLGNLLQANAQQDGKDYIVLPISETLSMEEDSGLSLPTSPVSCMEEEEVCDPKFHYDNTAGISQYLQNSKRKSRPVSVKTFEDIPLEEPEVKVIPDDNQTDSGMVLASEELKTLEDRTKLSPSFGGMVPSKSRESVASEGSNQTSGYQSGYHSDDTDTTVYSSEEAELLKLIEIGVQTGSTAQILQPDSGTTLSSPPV
Method in brief: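 Kinase (20 nM final) and compound were premixed 20 min at 30 °C, then phosphorylation ran 2 h at 30 °C with ATP at 90 μM and Ulight-TK substrate at 50 μM, pH 7.5, Mg2+ and Mn2+ present.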

[1] = MDA-MB-231, MDA-MB-231 cells, read-out: MDA-MB-231 pERK IC50
[2] = PLC-PRF-5, PLC-PRF-5 cells, read-out: PLC-PRF-5 cell proliferation IC50

Compound: O=C(Nc1ccc(Oc2ccnc(NC(=O)C3CC3)c2)cc1)Nc1cccc(OC(F)(F)F)c1 [Exe. 146]
- IC50 (pERK in MDA-MB-231 cells; [1]): 11.4 nM
- IC50 (PLC-PRF-5 cells; [2]): 689 nM
- IC50 (B-Raf kinase): 14 nM
- IC50 (KDR kinase (790-1356 AA)): 7.8 nM

Compound: Cc1cc(Oc2cc(NC(=O)C3CC3)ncn2)ccc1NC(=O)Nc1ccc(Cl)c(C(C)(F)F)c1 [Exe. 085]
- IC50 (pERK in MDA-MB-231 cells; [1]): 19.3 nM
- IC50 (PLC-PRF-5 cells; [2]): 11000 nM
- IC50 (B-Raf kinase): 45 nM
- IC50 (KDR kinase (790-1356 AA)): 10.7 nM

Compound: O=C(Nc1cnc(Oc2ccnc(NC(=O)C3CC3)c2)c(F)c1)Nc1ccc(Cl)c(C(F)(F)F)c1 [Exe. 025]
- IC50 (pERK in MDA-MB-231 cells; [1]): 71.6 nM
- IC50 (PLC-PRF-5 cells; [2]): 371 nM
- IC50 (B-Raf kinase): 9.1 nM
- IC50 (KDR kinase (790-1356 AA)): 14.9 nM

Compound: Cc1cc(NC(=O)Nc2cc(C(F)(F)F)ccc2F)cnc1Oc1ccnc(NC(=O)C2CC2)c1 [Exe. 124]
- IC50 (pERK in MDA-MB-231 cells; [1]): 19.4 nM
- IC50 (PLC-PRF-5 cells; [2]): 160 nM
- IC50 (B-Raf kinase): 10.4 nM
- IC50 (KDR kinase (790-1356 AA)): 13.8 nM

Compound: O=C(Nc1ccc(Cl)c(C(F)(F)F)c1)Nc1ccc(Oc2ccnc(NC(=O)C3CC3)c2)cc1F [Exe. 029]
- IC50 (pERK in MDA-MB-231 cells; [1]): 10.1 nM
- IC50 (PLC-PRF-5 cells; [2]): 790 nM
- IC50 (B-Raf kinase): 7.3 nM
- IC50 (KDR kinase (790-1356 AA)): 3.9 nM

Compound: Cc1cc(Oc2cc(NC(=O)C3CC3)ncn2)ccc1NC(=O)Nc1ccc(F)c(C(F)(F)F)c1 [Exe. 070, N-[6-[4-[[4-fluoro-3-(trifluoromethyl)phenyl]carbamoylamino]-3-methyl-phenoxy]pyrimidin-4-yl]cyclopropanecarboxamide]
- IC50 (pERK in MDA-MB-231 cells; [1]): 63.5 nM
- IC50 (PLC-PRF-5 cells; [2]): 9300 nM
- IC50 (B-Raf kinase): 145 nM
- IC50 (KDR kinase (790-1356 AA)): 11 nM

Compound: O=C(Nc1ccc(Oc2cc(NC(=O)C3CC3)ncn2)cc1F)Nc1cc(C(F)(F)F)ccc1F [Exe. 107]
- IC50 (pERK in MDA-MB-231 cells; [1]): 20.2 nM
- IC50 (PLC-PRF-5 cells; [2]): 324 nM
- IC50 (B-Raf kinase): 31 nM
- IC50 (KDR kinase (790-1356 AA)): 13.4 nM

Compound: O=C(Nc1cc(F)cc(C(F)(F)F)c1)Nc1ccc(Oc2ccnc(NC(=O)C3CC3)c2)cc1F [Exe. 208]
- IC50 (pERK in MDA-MB-231 cells; [1]): 9.8 nM
- IC50 (PLC-PRF-5 cells; [2]): 640 nM
- IC50 (B-Raf kinase): 37 nM
- IC50 (KDR kinase (790-1356 AA)): 14.9 nM

Compound: Cc1cc(NC(=O)Nc2ccc(Cl)c(C(F)(F)F)c2)ccc1Oc1cc(NC(=O)C2CC2)ncn1 [Exe. 010]
- IC50 (pERK in MDA-MB-231 cells; [1]): 43.1 nM
- IC50 (PLC-PRF-5 cells; [2]): 4350 nM
- IC50 (B-Raf kinase): 97 nM
- IC50 (KDR kinase (790-1356 AA)): 13.7 nM

Compound: Cc1cc(Oc2ccnc(NC(=O)C3CC3)c2)ccc1NC(=O)Nc1ccc(Cl)c(C(F)(F)F)c1 [Exe. 023]
- IC50 (pERK in MDA-MB-231 cells; [1]): 6.9 nM
- IC50 (PLC-PRF-5 cells; [2]): 4170 nM
- IC50 (B-Raf kinase): 15 nM
- IC50 (KDR kinase (790-1356 AA)): 10.5 nM

Compound: O=C(Nc1ccc(F)c(OC(F)(F)F)c1)Nc1ccc(Oc2ccnc(NC(=O)C3CC3)c2)cc1F [Exe. 215]
- IC50 (pERK in MDA-MB-231 cells; [1]): 14.5 nM
- IC50 (PLC-PRF-5 cells; [2]): 618 nM
- IC50 (B-Raf kinase): 19 nM
- IC50 (KDR kinase (790-1356 AA)): 13.2 nM

Compound: N#Cc1ccc(NC(=O)Nc2ccc(Oc3ccnc(NC(=O)C4CC4)c3)cc2)cc1C(F)(F)F [Exe. 139]
- IC50 (pERK in MDA-MB-231 cells; MDA-MB-231, read-out: MDA-MB-231 pERK IC50): 10.9 nM
- IC50 (PLC-PRF-5 cells; PLC-PRF-5, read-out: PLC-PRF-5 cell proliferation IC50): 654 nM
- IC50 (B-Raf kinase): 13 nM
- IC50 (KDR kinase (790-1356 AA)): 10 nM

Compound: Cc1cc(NC(=O)Nc2cccc(C(F)(F)F)c2)ccc1Oc1ccnc(NC(=O)C2CC2)c1 [Exe. 231]
- IC50 (pERK in MDA-MB-231 cells; [1]): 7.1 nM
- IC50 (PLC-PRF-5 cells; [2]): 310 nM
- IC50 (B-Raf kinase): 12.5 nM
- IC50 (KDR kinase (790-1356 AA)): 11.6 nM

Compound: Cc1cc(NC(=O)Nc2ccc(Cl)c(C(F)(F)F)c2)ccc1Oc1ccnc(NC(=O)C2CC2)c1 [Exe. 031]
- IC50 (pERK in MDA-MB-231 cells; [1]): 33.8 nM
- IC50 (PLC-PRF-5 cells; [2]): 1300 nM
- IC50 (B-Raf kinase): 25 nM
- IC50 (KDR kinase (790-1356 AA)): 14.5 nM

Further lines, with some results ahead:

- IC50 (pERK in MDA-MB-231 cells; [1]): 63.8 nM
- IC50 (B-Raf kinase): 34.3 nM
- IC50 (KDR kinase (790-1356 AA)): 6.8 nM
Compound: CC(C)Nc1cc(NC(=O)Nc2ccc(Oc3ccnc(NC(=O)C4CC4)c3)c(F)c2)cc(C(F)(F)F)c1 [Exe. 187]
- IC50 (PLC-PRF-5 cells; [2]): 638 nM

- IC50 (pERK in MDA-MB-231 cells; [1]): 31.6 nM
- IC50 (B-Raf kinase): 96 nM
- IC50 (KDR kinase (790-1356 AA)): 5.6 nM
Compound: O=C(Nc1ccc(Oc2ccnc(NC(=O)C3CC3)c2)c(F)c1)Nc1cc(C(F)(F)F)ncn1 [Exe. 170]
- IC50 (PLC-PRF-5 cells; [2]): 230 nM

- IC50 (pERK in MDA-MB-231 cells; [1]): 22 nM
- IC50 (B-Raf kinase): 13 nM
- IC50 (KDR kinase (790-1356 AA)): 15.5 nM
Compound: O=C(Nc1cc(N2CCCC2=O)cc(C(F)(F)F)c1)Nc1ccc(Oc2ccnc(NC(=O)C3CC3)c2)c(F)c1 [Exe. 052]
- IC50 (PLC-PRF-5 cells; [2]): 360 nM

- IC50 (pERK in MDA-MB-231 cells; [1]): 86.9 nM
- IC50 (B-Raf kinase): 7.9 nM
- IC50 (KDR kinase (790-1356 AA)): 12.2 nM
Compound: CN1CCC(Nc2cc(NC(=O)Nc3ccc(Oc4ccnc(NC(=O)C5CC5)c4)c(F)c3)cc(C(F)(F)F)c2)CC1 [Exe. 161]
- IC50 (PLC-PRF-5 cells; [2]): 1340 nM

- IC50 (pERK in MDA-MB-231 cells; [1]): 17 nM
- IC50 (B-Raf kinase): 32 nM
- IC50 (KDR kinase (790-1356 AA)): 14.7 nM
Compound: CC(F)(F)c1cc(NC(=O)Nc2ccc(Oc3ccnc(NC(=O)C4CC4)c3)c(F)c2)ccc1Cl [Exe. 182]
- IC50 (PLC-PRF-5 cells; [2]): 752 nM

- IC50 (pERK in MDA-MB-231 cells; [1]): 33.9 nM
- IC50 (B-Raf kinase): 26 nM
- IC50 (KDR kinase (790-1356 AA)): 13.5 nM
Compound: CS(=O)(=O)c1cc(NC(=O)Nc2ccc(Oc3ccnc(NC(=O)C4CC4)c3)c(F)c2)cc(C(F)(F)F)c1 [Exe. 037]
- IC50 (PLC-PRF-5 cells; [2]): 768 nM
